In patent US20200063214A1, “METHODS OF IDENTIFYING PATIENTS LIKELY TO BENEFIT FROM TREATMENT WITH A TELOMERASE INHIBITOR” (Geron Corporation, priority 2018, published 2020):
Several values for one entry are separate records, joined by “and”; a condition that tells them apart may be missing. Equal values may be shown once. Entries after “also recorded” stand apart in the source; their conditions may differ.

How the values were obtained:
Type in all cases: in vivo, human
[1] = test system: intermediate-2 or high-risk myelofibrosis (MF) relapsed/refractory to JAK inhibitor; assay: Phase 2 study: spleen response (spleen volume reduction, SVR, by MRI at week 24); details: for subjects with SVR >= 20% at week 24, No / subjects with SVR >= 20% at week 24, Yes / subjects with SVR >= 35% at wk 24 by IRC, No / subjects with SVR >= 35% at wk 24 by IRC, Yes / subjects with SVR >= 20% at Week 24 by IRC, No / subjects with SVR >= 20% at Week 24 by IRC, Yes / subjects with SVR >= 35% at Week 24 by IRC, Yes / subjects with SVR >= 35% at week 24 by IRC, No: 9.4 mg/kg
Source text: (§1) Diagnosis of primary, post-essential thrombocythemia, or post-polycythemia vera MF was required; other eligibility criteria included measurable splenomegaly (by magnetic resonance imaging [MRI]), active MF-related systemic symptoms and platelet count ≥75×10^9/L. Primary endpoints were: spleen response rate (% achieving ≥35% spleen volume reduction [SVR] by MRI at week 24); and symptom response rate (% achieving ≥50% reduction in total symptom score [TSS] per the Myelofibrosis Symptom Assessment Form (MFSAF) v2 at week 24). Key secondary endpoints included safety, overall survival (OS), treatment response, molecular response, and pharmacokinetic and pharmacodynamic relationships.

[2] = test system: intermediate-2 or high-risk myelofibrosis (MF) relapsed/refractory to JAK inhibitor; assay: Phase 2 study: symptom response (total symptom score, TSS, MFSAF v2 at week 24); details: for subjects with TSS >= 50% decrease at week 24, No / subjects with TSS >= 50% decrease at week 24, Yes: 9.4 mg/kg
Source text: as §1

[3] = test system: intermediate-2 or high-risk myelofibrosis (MF) relapsed/refractory to JAK inhibitor; assay: Phase 2 study: overall survival (OS); details: 9.4 mg/kg arm
Source text: as §1

[4] = HMR with 1 Mutation, 21 subjects
[5] = HMR with >1 Mutation, 14 subjects
[6] = all patients, first clinical cutoff

Substance: DNA, d(3′-amino-3′-deoxy-P-thio) (T-A-G-G-G-T-T-A-G-A-C-A-A), 5′-[O-[2-hydroxy-3-(hexadecanoylamino)propyl] phosphorothioate], sodium salt (1:13) [imetelstat sodium]
- spleen response rate (>=35% SVR by MRI at week 24) ([1]; 9.4 mg/kg IV every 3 weeks arm, all patients (n = 59)): 10.2%
- rate of response (SVR or TSS), LMR or HMR with only 1 mutation compared to HMR with more than 1 mutations ([1]; 9.4 mg/kg arm, week 24): higher rate of response
- rate of response (SVR or TSS), TN group compared to Non-TN group ([1]; 9.4 mg/kg arm, week 24): higher rate of response
- subjects with SVR >= 20% at week 24, No [1, 4]: 15 (71.4%)
- subjects with SVR >= 20% at week 24, Yes [1, 4]: 6 (28.6%)
- subjects with SVR >= 35% at wk 24 by IRC, No [1, 4]: 17 (81%)
- subjects with SVR >= 35% at wk 24 by IRC, Yes [1, 4]: 4 (19%)
- subjects with SVR >= 20% at week 24, No [1, 5]: 13 (92.9%)
- subjects with SVR >= 20% at week 24, Yes [1, 5]: 1 (7.1%)
- subjects with SVR >= 35% at wk 24 by IRC, Yes [1, 5]: 0 (0%)
- subjects with SVR >= 20% at week 24, No ([1]; LMR, No Mutation, 22 subjects): 17 (77.3%)
- subjects with SVR >= 20% at week 24, Yes ([1]; LMR, No Mutation, 22 subjects): 5 (22.7%)
- subjects with SVR >= 35% at wk 24 by IRC, No ([1]; LMR, No Mutation, 22 subjects): 20 (90.9%)
- subjects with SVR >= 35% at wk 24 by IRC, Yes ([1]; LMR, No Mutation, 22 subjects): 2 (9.1%)
- subjects with SVR >= 20% at Week 24 by IRC, No ([1]; Non-TN, 41 subjects): 34 (82.9%)
- subjects with SVR >= 20% at Week 24 by IRC, Yes ([1]; Non-TN, 41 subjects): 7 (17.1%)
- subjects with SVR >= 35% at Week 24 by IRC, Yes ([1]; Non-TN, 41 subjects): 3 (7.3%)
- subjects with SVR >= 35% at week 24 by IRC, No ([1]; Non-TN, 41 subjects): 38 (92.7%)
- subjects with SVR >= 20% at Week 24 by IRC, No ([1]; TN, 16 subjects): 11 (68.75)) %
- subjects with SVR >= 20% at Week 24 by IRC, Yes ([1]; TN, 16 subjects): 5 (31.25%)
- subjects with SVR >= 35% at Week 24 by IRC, Yes ([1]; TN, 16 subjects): 3 (18.75%)
- subjects with SVR >= 35% at week 24 by IRC, No ([1]; TN, 16 subjects): 13 (81.25%)
- spleen response rate, comparison by HMR mutation ([1]; patients with 1 HMR mutation (ASXL1, EZH2, SRSF2, or IDH1/2)): higher
- symptom response rate (TSS reduction >=50% at week 24) ([2]; 9.4 mg/kg arm, all patients (n = 59)): 32%
- subjects with TSS >= 50% decrease at week 24, No [2, 4]: 14 (66.7%)
- subjects with TSS >= 50% decrease at week 24, Yes [2, 4]: 7 (33.3%)
- subjects with TSS >= 50% decrease at week 24, No [2, 5]: 11 (78.6%)
- subjects with TSS >= 50% decrease at week 24, Yes [2, 5]: 3 (21.4%)
- subjects with TSS >= 50% decrease at week 24, No ([2]; LMR, No Mutation, 22 subjects): 14 (63.6%)
- subjects with TSS >= 50% decrease at week 24, Yes ([2]; LMR, No Mutation, 22 subjects): 8 (36.4%)
- subjects with TSS >= 50% decrease at week 24, No ([2]; Non-TN, 41 subjects): 31 (75.6%)
- subjects with TSS >= 50% decrease at week 24, Yes ([2]; Non-TN, 41 subjects): 10 (24.4%)
- subjects with TSS >= 50% decrease at week 24, No ([2]; TN, 16 subjects): 8 (50%)
- subjects with TSS >= 50% decrease at week 24, Yes ([2]; TN, 16 subjects): 8 (50%)
- Median survival, months (95% CI) ([3]; Non-TN subjects, first clinical cutoff): 23.6 months and 23.6 (20.7, NE) months
- OS HR (95% CI) ([3]; Non-TN vs TN, first clinical cutoff): 2.76 (0.81, 9.46)
- Death rate % ([3]; Non-TN, first clinical cutoff): 41.5%
- Median survival, months (95% CI) ([3]; TN subjects, first clinical cutoff): has not been reached; also recorded: not estimable; also recorded: NE (23.2, NE)
- Death rate % ([3]; TN, first clinical cutoff): 18.8%
- 18-month survival rate [3, 6]: 76.7%
- median OS [3, 6]: has not been reached
- median OS ([3]; all patients, second clinical cutoff): 29.9 months
- death rate, TN group compared to Non-TN group ([3]; first clinical cutoff): lower death rate
- death rate, TN group compared to Non-TN group ([3]; second clinical cutoff): lower death rate
